According to patent US11155668B2, “Contact-killing, QAC functionalized thermoplastic polyurethane for catheter applications” (THE UNIVERSITY OF AKRON, priority 2017, dated 2021):
“Also recorded” adds a separate entry of the source.

Experiments:
E. coli = assay: Contact-killing assay (adapted from ISO 22196) on allyl-TPU blade-coated samples modified with Qx-SH; assay type: cell-based, Escherichia coli (ATCC 25922); details: for log reduction in E. coli compared to the negative control / reduction in E. coli compared to the negative control: 24 h contact-killing assay; for Mean CFU/Sample Recovered, E. coli: n = 2, negative control polypropylene 2.04 (±0.06) × 10^6
Method: (§1) To functionalize the allyl-TPU blade-coated samples with Qx-SH reagents, thiol-ene reactions were performed using the same procedure described for rhodamine-SH. Briefly, blade-coated films of allyl-TPU (250 μm thick, 2.0 cm diameter, ca. 110 mg, 20 μmol allyl) were submerged in 2 mL of an Ar purged (30 min) aqueous solution containing Qx-SH (10.0 mM) and LAP (5.0 mM), and allowed to pre-soak for 30 min under Ar. UV-treated samples were irradiated for 30 min (λ=365 nm, I=1.2 mW·cm^−2) while phys. ads. samples were kept in the absence of UV light for 30 min to control for any antimicrobial activity that is contributed by non-covalently attached QAC. Following treatment, the dye/photoinitiator solutions were drawn up and discarded, and the samples were rinsed with 5 mL of DI water (3×) then submerged in 5 mL of DI water. The samples were further rinsed with 10% EtOH (3×) and soaked in 10% EtOH for 15 min (3×), rinsing with 10% EtOH in between each soak.
(§2) For antimicrobial testing, blade-coated samples and catheter tubing of allyl-TPU were sterilized by EtO sterilization using an Anprolene benchtop sterilizer (Anderson Products, Inc., Haw River, N.C.) following the manufacturer's protocol to deliver approximately 0.5 cc·L^−1 of EtO gas over a 12 h sterilization cycle at 35% humidity and room temperature, followed by a 48 h purge under vacuum. The bacterial strains used in this study included Staphylococcus epidermidis (ATCC 12228), Staphylococcus aureus (25923), Escherichia coli (ATCC 25922), Pseudomonas aeruginosa (ATCC 27853), Enterococcus faecalis (ATCC 29212), and methicillin-resistant Staphylococcus aureus (MRSA) (ATCC BAA-41).
The contact-killing assay was performed on physically adsorbed (phys. ads.), and UV-treated blade-coated samples modified with a series of Qx-SH reagents using a method adapted from ISO 22196. See, International Organization for Standardization. Measurement of antibacterial activity on plastics and other non porous surfaces (ISO 22196:2011), the disclosure of which is incorporated herein by reference in its entirety. Briefly, the samples were inoculated with same day cultures of select bacteria (e.g. E. coli, S. epidermidis) in dilute nutrient media (0.2% tryptic soy broth (TSB) in 1× phosphate buffered saline (PBS)) at approximately 150 colony-forming units (CFU)·mm^−2. Generally, 35 uL of 8.5×10^5 CFU/mL cultures were dispersed across the surface of the sample using sterile polypropylene cover films (area=198 mm^2). […] Following incubation, surviving cells were recovered from the samples using vigorous agitation (i.e. vortexing for 20 s in PBS). Surviving cells were enumerated via 10-fold series dilution and plating 100 μL onto tryptic soy agar (TSA), incubating overnight and then plate counting CFU. The mean CFU recovered per sample (CFU/sample) were calculated by accounting for dilutions. Internal controls samples of polypropylene and chlorhexidine treated with polypropylene were included in the assay.

NIH/3T3 fibroblast cells = assay: Cell viability assay (LIVE/DEAD staining) on coated coverslips; assay type: cell-based; details: for cell viability relative to glass: 24 h
Method: NIH/3T3 fibroblast cells (ATCC CRL-1658) were used to assess cell viability (passage 9) on the allyl-TPU films. The 8% allyl-TPU was spin-coated on blank glass coverslips (1 wt. % in chloroform) and samples were annealed at 60° C. for 1 h, then kept under vacuum for 24 h. The coated coverslips were then treated and rinsed as previously described to produce a control, phys. ads., and UV-treated sample modified with Q8-SH. Samples were sterilized by short-wave UV sterilization for 30 minutes. Cells were seeded at a cell density of 194,000 cells/cm^2 and cultured for 24 hours in a 37° C. incubator. Samples were then removed and stained with a LIVE/DEAD™ Viability/Cytotoxicity Kit (ThermoFisher Scientific L3224). Slides were analyzed with a Keyence BZ-X700 microscope at 20× magnification. Pictograms were analyzed with ImageJ software for cell viability counting (n=5). All groups were compared to the glass slide control.

P. aeruginosa = assay: Contact-killing assay (adapted from ISO 22196) on allyl-TPU blade-coated samples modified with Qx-SH; assay type: cell-based, Pseudomonas aeruginosa (ATCC 27853); details: for Mean CFU/Sample Recovered, P. aeruginosa: n = 1, negative control polypropylene 7.94 × 10^6
Method: as §1, §2
(§3) The contact-killing assay was performed on physically adsorbed (phys. ads.), and UV-treated blade-coated samples modified with a series of Qx-SH reagents using a method adapted from ISO 22196. See, International Organization for Standardization. Measurement of antibacterial activity on plastics and other non porous surfaces (ISO 22196:2011), the disclosure of which is incorporated herein by reference in its entirety. Briefly, the samples were inoculated with same day cultures of select bacteria (e.g. E. coli, S. epidermidis) in dilute nutrient media (0.2% tryptic soy broth (TSB) in 1× phosphate buffered saline (PBS)) at approximately 150 colony-forming units (CFU)·mm^−2. Generally, 35 uL of 8.5×10^5 CFU/mL cultures were dispersed across the surface of the sample using sterile polypropylene cover films (area=198 mm^2). Inoculated samples were incubated in a humidified room air incubator (36° C., ca. 80% rel. humidity) for 20 h. Following incubation, surviving cells were recovered from the samples using vigorous agitation (i.e. vortexing for 20 s in PBS). Surviving cells were enumerated via 10-fold series dilution and plating 100 μL onto tryptic soy agar (TSA), incubating overnight and then plate counting CFU. The mean CFU recovered per sample (CFU/sample) were calculated by accounting for dilutions. Internal controls samples of polypropylene and chlorhexidine treated with polypropylene were included in the assay.

S. aureus = assay: Live/dead fluorescence assay on blade-coated samples modified with Q8-SH; assay type: cell-based, Staphylococcus aureus (25923); details: within 5 min
Method: as §2
A live/dead assay was performed using overnight cultures of E. coli grown in TSB and S. aureus grown in Mueller-Hinton broth (MH). The cells were washed with PBS (3×), resuspended in PBS, and diluted to obtain an OD600=0.15 (measured using a Hach DR2800 Spectrophotometer, λ=600 nm). The bacterial suspensions (1.0 mL) were stained with 2.0 μL of a dye mixture containing equal portions of 3.34 mM SYTO 9 and 20 mM propidium iodide (L7012 LIVE/DEAD™ BACLIGHT™ Bacterial Viability Kit, ThermoFisher Scientific) and allowed to incubate at room temperature in the dark for 15 min. […] Live/dead microscopy was performed using an IX81 inverted microscope (Olympus, Center Valley, Pa.) and images were processed and quantified using ImageJ software.

E. faecalis = assay: Contact-killing assay (adapted from ISO 22196) on allyl-TPU blade-coated samples modified with Qx-SH; assay type: cell-based, Enterococcus faecalis (ATCC 29212); details: n = 1, negative control polypropylene 1.70 × 10^5
Method: as §1, §2, §3

CCCCCCCC[N+](C)(C)CCCCCCCCOC(=O)CCS.[Cl-] [Q8-SH]
log reduction in E. coli compared to the negative control (E. coli; UV-treated samples): 6 log | reduction in E. coli compared to the negative control (E. coli; UV-treated samples): 99.9999% | Mean CFU/Sample Recovered, E. coli (E. coli; UV-treated samples): 0.00 ± 0.00 CFU/Sample | log reduction in E. coli compared to the negative control (E. coli; phys. ads. samples): 6 log | reduction in E. coli compared to the negative control (E. coli; phys. ads. samples): 99.9999% | Mean CFU/Sample Recovered, E. coli (E. coli; phys. ads. samples): 0.00 ± 0.00 CFU/Sample | cell viability relative to glass (NIH/3T3 fibroblast cells; UV-treated samples): > 90% | cytotoxicity towards mammalian cells (in words) (NIH/3T3 fibroblast cells; control, phys. ads. and UV-treated samples compared to a glass slide control, FIG. 68): non-cytotoxic | cell viability relative to glass (NIH/3T3 fibroblast cells; phys. ads. samples): > 90% | reduction of P. aeruginosa (P. aeruginosa; UV-treated samples): complete reduction | Mean CFU/Sample Recovered, P. aeruginosa (P. aeruginosa; UV-treated samples): 0.00 CFU/Sample | reduction of P. aeruginosa (P. aeruginosa; phys. ads. samples): complete reduction | Mean CFU/Sample Recovered, P. aeruginosa (P. aeruginosa; phys. ads. samples): 0.00 CFU/Sample | portion of S. aureus killed (S. aureus; UV-treated samples): ca. 75% | S. aureus inoculum killed (in words) (S. aureus; UV-treated samples, within 10 min, OD600=0.15): nearly all; also recorded: majority | portion of S. aureus killed (S. aureus; phys. ads. samples): ca. 50% | Mean CFU/Sample Recovered, E. faecalis (E. faecalis; UV-treated samples): 0.00 CFU/Sample | Mean CFU/Sample Recovered, E. faecalis (E. faecalis; phys. ads. samples): 0.00 CFU/Sample
